From US9630957B2, “2,3-butanediamide epoxide compound and preparation method and use thereof” (Institute of Pharmacology and Toxicology Academy of …, priority 2014, dated 2017)
Converted amounts (≈) assume the structure as drawn.

Experiments:
Vero cells = assay: Cytotoxicity of the compounds for Vero cells (CPE observation, TC50); format: cell-based; conditions: no virus
Procedure: (§1) 2. Sample treatment: the compounds of the present invention are dissolved in DMSO or diluent to prepare stock solution which is stored at −20° C. The stock solution is formulated to suitable incipient concentration with culture solution immediately before use, and then 3-fold diluted with the culture solution, 8 degrees of dilution each.
(§2) 4. Test Method: Vero cells are seeded into a 96-well culture plate, at 5% CO2, and cultured at 37° C. for 16 hours. The Vero cells are added with different dilutions of drugs, and the degree of cytopathic effect (CPE) in each group is observed. The half toxic concentration (TC50) of each sample for Vero cells is calculated. Vero cells are added with 100TCID50 enterovirus EV71 respectively, and the virus solution is discarded after adsorption at 37° C. for 1 hour, and then drugs with various degrees of dilution are added respectively. Virus control and cell control are set and incubated at 37° C. The degree of cytopathic effect (CPE) in each group is observed when the degree of cytopathic effect (CPE) of virus control group reaches 4+. The half inhibitory concentration (IC50) of each sample for enterovirus EV71 are calculated. Selectivity Index (SI) is calculated according to the following equation: SI=TC50/IC50.

[1] = tested on: enterovirus EV71 (BrCr strain); assay: Activity screening for anti-enterovirus EV71: inhibition of cytopathic effect in Vero cells; format: cell-based; conditions: for IC50: 100TCID50, Vero cells, CPE read when virus control reaches 4+, read-out: IC50 (half inhibitory concentration for enterovirus EV71); for SI (Selectivity Index = TC50/IC50): Vero cells
Procedure: Test item: Activity screening of the compounds for anti-enterovirus EV71
Test principle: Vero cells are used as viral host. The inhibition of the compound of the invention on the degree of cytopathic effect of Vero cells caused by enterovirus virus EV71 is determined.
1. Virus strain: enterovirus EV71 (BrCr, American Type Culture Collection, ATCC)
as §1
3. Positive control drug: Pirodavir (LGM Pharma), which is a broad-spectrum anti-viral inhibitor.
as §2

SMILES	melting point [°C]	IC50 [1] [µg/mL]	TC50 (half toxic concentration for Vero cells) (Vero cells) [µg/mL]	SI (Selectivity Index = TC50/IC50) [1]
O=C(Nc1nc2ccccc2s1)c1ccc(N(Cc2ccc(F)cc2)C(=O)[C@H]2O[C@@H]2C(=O)Nc2ccc(Cl)cc2Cl)cc1 [Compound 26, (2S,3S)—N^2-(4-(benzo[d]thiazol-2-ylcarbamoyl)phenyl)-N^3-(2,4-dichlorophenyl)-N^2-(4-fluorobenzyl)-2,3-epoxybutanediamide]	206.7 to 207.5	> 0.82	1.43	–
COc1ccccc1NC(=O)[C@H]1O[C@@H]1C(=O)N(Cc1ccc(F)cc1)c1ccc(C(=O)Nc2nc3ccccc3s2)cc1 [Compound 37, (2S,3S)—N^2-(4-(benzo[d]thiazol-2-ylcarbamoyl)phenyl)-N^3-(2-methoxyphenyl)-N^2-(4-fluorobenzyl)-2,3-epoxybutanediamide]	189.2 to 190	> 0.27	0.82	–
CCOC(=O)c1csc(NC(=O)[C@H]2O[C@@H]2C(=O)N(Cc2ccc(F)cc2)c2ccc(C(=O)Nc3nc4ccccc4s3)cc2)n1 [Compound 33, (2S,3S)—N^2-(4-(benzo[d]thiazol-2-ylcarbamoyl)phenyl)-N^2-(4-fluorobenzyl)-N^3-(4-ethoxycarbonylthiazol-2-yl)-2,3-epoxybutanediamide]	220.5 to 221.6	> 0.27	1.19	–
COc1cccc(NC(=O)[C@H]2O[C@@H]2C(=O)N(Cc2ccc(F)cc2)c2ccc(C(=O)Nc3nc4ccccc4s3)cc2)c1 [Compound 21, (2S,3S)—N^2-(4-(benzo[d]thiazol-2-ylcarbamoyl)phenyl)-N^3-(3-methoxyphenyl)-N^2-(4-fluorobenzyl)-2,3-epoxybutanediamide]	223.1 to 224.1	> 0.27	1.19	–
COC(=O)c1csc(NC(=O)[C@H]2O[C@@H]2C(=O)N(Cc2ccccc2)c2ccc(C(=O)Nc3nc4ccccc4s3)cc2)n1 [Compound 41, (2S,3S)—N^2-(4-(benzo[d]thiazol-2-ylcarbamoyl)phenyl)-N^2-benzyl-N^3-(4-methoxycarbonylthiazol-2-yl)-2,3-epoxybutanediamide]	223.5 to 224.3	> 0.82	1.43	–

The next lines start with results.

melting point [°C]	IC50 [1] [µg/mL]	SMILES	TC50 (half toxic concentration for Vero cells) (Vero cells) [µg/mL]	SI (Selectivity Index = TC50/IC50) [1]
179.2 to 179.6	0.27 (≈ 0.664 µM)	O=C(Nc1cccc(Cl)c1)[C@H]1O[C@@H]1C(=O)N(Cc1ccccc1)c1ccccc1 [Compound 8, (2S,3S)—N^2-benzyl-N^2-phenyl-N^3-(3-chlorophenyl)-2,3-epoxybutanediamide]	4.28	15.85
156.5 to 157.2	> 2.47	COc1ccc(NC(=O)[C@H]2O[C@@H]2C(=O)N(Cc2ccccc2)c2ccccc2)cc1OC [Compound 1, (2S,3S)—N^2-benzyl-N^2-phenyl-N^3-(3,4-dimethoxyphenyl)-2,3-epoxybutanediamide]	10.68	–
146.6 to 147.4	2.47 (≈ 6.51 µM)	O=C(Nc1nccs1)[C@H]1O[C@@H]1C(=O)N(Cc1ccccc1)c1ccccc1 [Compound 2, (2S,3S)—N^2-benzyl-N^2-phenyl-N^3-(2-thiazolyl)-2,3-epoxybutanediamide]	10.68	4.32
153.8 to 154.7	2.47 (≈ 6.33 µM)	O=C(Nc1ccc(F)cc1)[C@H]1O[C@@H]1C(=O)N(Cc1ccccc1)c1ccccc1 [Compound 5, (2S,3S)—N^2-benzyl-N^2-phenyl-N^3-(4-fluorophenyl)-2,3-epoxybutanediamide]	10.68	4.32
